In patent publication US20260337245A1, “POLYPEPTIDE OR ANALOG THEREOF AND USE THEREOF” (Shenzhen Bay Laboratory, priority 2024, published 2026):
Starred links: 1 amine or outer side, 2 acyl side, 3 side chain; linkers in the order of their positions; H or OH if unused. Positions of bridges follow the written chain, without caps; N, C: chain ends. Non-standard residues stand in square brackets, D forms with d. Residues, ends and D or L forms follow the SMILES beside them. X1 = O=C(O)CCCCCCCCCCCCCCCCCCC(=O)N[C@@H](CCCCNC(=O)COCCOCCNC(=O)COCCOCCNC(=O)CCC(=O)N(CCNC(=O)C[*:1])CCNC(=O)C[*:2])C(=O)O; NMeR = CN[C@@H](CCCNC(=N)N)C(=O)O; Hyp = O=C(O)[C@@H]1C[C@@H](O)CN1; αMeK = C[C@](N)(CCCCN)C(=O)O; Aib = CC(C)(N)C(=O)O

How the values were obtained:
[1] = Pharmacokinetic evaluation in SD rats; format: in vivo, male SD rat; details: plasma, rat
Procedure: 1. The pharmacokinetic behaviors of the polypeptide derivatives (i.e., AMY-001 to AMY-041) prepared in Example 1 and Example 2 in SD rats were tested.
Each polypeptide derivative (i.e., AMY-001 to AMY-041) was administered to male SD rat as a single injection via subcutaneous injection (SC, 3 mg/kg, with PBS as a medicament vehicle, a concentration of 1.5 mg/mL, and an administration volume of 2 mL) and intravenous injection (IV, 1 mg/kg, with PBS as a medicament vehicle, a concentration of 0.5 mg/mL, and an administration volume of 2 mL), respectively. After administration, whole blood samples were respectively collected from the jugular vein or other appropriate veins at selected time points. 0.2 mL of blood was collected and placed in a labeled EDTA-K2 anticoagulant tube. The tube was gently inverted up and down to ensure thorough mixing of the anticoagulant (EDTA-K2) with the blood, immediately placed on wet ice and centrifuged as soon as possible to separate plasma, and the centrifugation conditions were set to 4° C., 6800 g, and 6 minutes. Plasma samples were stored in a refrigerator at a temperature not exceeding −20° C. until subsequent analysis.
Under yellow light conditions in an ice water bath, (1) except for the blank sample, 300 μL of precipitant containing internal standard was added to a 96-well plate containing 20 μL of a standard curve sample, a quality control sample or an unknown sample; 300 μL of acetonitrile was added to the blank sample; (2) vortex mixing; (3) centrifugation; (4) 150 μL of supernatant was taken and added into a new 96-well plate, and then mixed well with 150 μL of ultrapure water; and (5) The above samples were quantitatively analyzed by using LC-MS analysis. Gradient elution was performed on a XB—C18 chromatographic column (2.1*100 mm, 3 μm), with the mobile phase as follows: mobile phase A=0.1% (volume percentage, v/v) formic acid-water; and mobile phase B=acetonitrile. Pharmacokinetic parameters were calculated using Phoenix WinNonlin software.

[2] = molecular target: T1, AMY3R (Homo sapiens, UniProt P30988); test: HTRF cAMP assay, AMY3R; format: cell-based; details: HEK293/pGM-CREB-L-Luc/AMY3R pool, read-out: IC50 of receptor AMY3R
T1 construct: expressed in transfected cells
T1 sequence (P30988 25-474): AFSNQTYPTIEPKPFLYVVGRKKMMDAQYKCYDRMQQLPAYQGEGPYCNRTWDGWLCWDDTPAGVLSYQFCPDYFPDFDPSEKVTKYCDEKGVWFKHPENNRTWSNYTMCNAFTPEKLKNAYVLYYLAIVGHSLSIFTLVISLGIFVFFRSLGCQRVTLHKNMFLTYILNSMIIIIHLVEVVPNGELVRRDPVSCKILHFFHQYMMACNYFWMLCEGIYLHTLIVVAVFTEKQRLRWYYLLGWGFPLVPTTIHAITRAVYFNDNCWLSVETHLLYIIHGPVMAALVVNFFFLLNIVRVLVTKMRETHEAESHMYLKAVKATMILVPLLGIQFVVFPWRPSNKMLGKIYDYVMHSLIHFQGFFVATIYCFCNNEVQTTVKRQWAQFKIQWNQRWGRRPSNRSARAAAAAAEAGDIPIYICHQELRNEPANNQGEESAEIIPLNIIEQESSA
T1 sequence (O60896 24-148 partner): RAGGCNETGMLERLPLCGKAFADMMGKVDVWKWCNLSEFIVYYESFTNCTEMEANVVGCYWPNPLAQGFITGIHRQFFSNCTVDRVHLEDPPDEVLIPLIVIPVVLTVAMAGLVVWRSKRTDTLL
From the text: (§1) 2. The polypeptide derivatives prepared in Example 1 and Example 2 of the present disclosure can bind to the target AMYR and CTR receptors on the cell membrane, activate the receptors and release cAMP. Therefore, the activity of the analyte can be determined by using an HTRF (homogeneous time-resolved fluorescence) method and using a cAMP detection kit. The specific steps were as follows:
(§2) A stable transfected cell line of HEK293/pGM-CREB-L-Luc/AMY3R pool and HEK293/pGM-CREB-L-Luc/CTR pool was constructed. The polypeptide derivatives (i.e., AMY-001 to AMY-041) prepared in Examples 1 and 2 were subjected to 5-fold serial dilution from a maximum of 1000 nM to prepare a dilution series containing 8 to 11 concentration gradients. Cagrilintide and sCT were selected as positive controls for testing, and a dilution series was prepared according to the same method for testing. The test cell lines were selected and treated with cAMP-specific trypsin for digestion, and then suspended with 3 mL of serum-free DMEM medium by pipetting, and the cells were counted. 5 μL of IBMX (prepared with serum-free DMEM medium, 0.5 mM) and test cells (5 μL/7500 cells/well) were sequentially added to a 384-well plate, incubated under the conditions of 37° C., 5% CO2 for 30 minutes, then added with cAMP-d2 (5 μL, 1×) and Anti-cAMP-Cryptate (5 μL, 1×) and placed at room temperature for 1 hour. A HTRF value was determined by a chemiluminescence microplate reader, and the results were recorded. An activation curve was plotted using GraphPad Prism software to calculate an IC50 value of each polypeptide derivative. […] The IC50 values of some polypeptides were exemplarily shown in this example, see Table 3, FIG. 2 and FIG. 3 for details.

[3] = molecular target: T2, CTR (Homo sapiens, UniProt P30988); test: HTRF cAMP assay, CTR; format: cell-based; details: HEK293/pGM-CREB-L-Luc/CTR pool, read-out: IC50 of receptor CTR
T2 construct: expressed in transfected cells
T2 sequence (P30988 25-474): T1 sequence (P30988 25-474)
From the text: as §1, §2

CC(=O)N[C@@H](C)C(=O)N[C@@H](CO)C(=O)N[C@@H](Cc1c[nH]cn1)C(=O)N[C@@H](CC(C)C)C(=O)N[C@@H](CO)C(=O)N[C@H](C(=O)N[C@@H](C)C(=O)N[C@H]1CSCC(=O)NCCN(C(=O)CCC(=O)NCCOCCOCC(=O)NCCOCCOCC(=O)NCCCC[C@H](NC(=O)CCCCCCCCCCCCCCCCCCC(=O)O)C(=O)O)CCNC(=O)CSC[C@@H](C(=O)N[C@@H](CC(C)C)C(=O)N[C@@H](Cc2c[nH]cn2)C(=O)N[C@@](C)(CCCCN)C(=O)N[C@@H](CC(C)C)C(=O)NC(C)(C)C(=O)N[C@@H](CC(=O)O)C(=O)N[C@@H](Cc2ccc(O)cc2)C(=O)N2CCC[C@H]2C(=O)N(C)[C@@H](CCCNC(=N)N)C(=O)N[C@H](C(=O)N[C@@H](CC(=O)O)C(=O)N[C@H](C(=O)NCC(=O)N[C@@H](C)C(=O)NCC(=O)N[C@@H](CO)C(=O)N2C[C@H](O)C[C@H]2C(N)=O)C(C)C)[C@@H](C)O)NC(=O)[C@H](C)NC(=O)[C@H](CO)NC(=O)[C@H](CC(C)C)NC(=O)[C@H](CCCNC(=N)N)NC(=O)CNC(=O)[C@H](CC(C)C)NC1=O)[C@@H](C)O [AMY-011, Ac-ASHLSTACLGRLSACLH-(αMeK)-L-Aib-DYP-(N-Me-R)-TDVGAGS-Hyp-NH2] (Ac-ASHLSTACLGRLSACLH[αMeK]L[Aib]DYP[NMeR]TDVGAGS[Hyp]-NH2; linker 8-15 via X1)
AUC(0-inf) ([1]; 1 mg/kg, IV (1 mpk)): 143 µg·h/mL | clearance ([1]; 1 mg/kg, IV (1 mpk)): 0.117 mL/min/kg | half-life ([1]; 1 mg/kg, IV (1 mpk)): 15.5 h | AUC(0-inf) ([1]; 3 mg/kg, SC (3 mpk)): 283 µg·h/mL | Cmax ([1]; 3 mg/kg, SC (3 mpk)): 6830 ng/mL | Tmax ([1]; 3 mg/kg, SC (3 mpk)): 8 h | bioavailability ([1]; 3 mg/kg, SC (3 mpk)): 65.9% | half-life ([1]; 3 mg/kg, SC (3 mpk)): 15.6 h | EC50 [2]: 0.0048 nM | EC50 [3]: 0.0122 nM

CC(=O)N[C@@H](C)C(=O)N[C@@H](CO)C(=O)N[C@@H](Cc1c[nH]cn1)C(=O)N[C@@H](CC(C)C)C(=O)N[C@@H](CO)C(=O)N[C@H](C(=O)N[C@@H](C)C(=O)N[C@H](C(=O)N[C@@H](CC(C)C)C(=O)N[C@H]1CSCC(=O)NCCN(C(=O)CCC(=O)NCCOCCOCC(=O)NCCOCCOCC(=O)NCCCC[C@H](NC(=O)CCCCCCCCCCCCCCCCCCC(=O)O)C(=O)O)CCNC(=O)CSC[C@@H](C(=O)N[C@@H](CCCCN)C(=O)N[C@@H](CC(C)C)C(=O)NC(C)(C)C(=O)N[C@@H](CC(=O)O)C(=O)N[C@@H](Cc2ccc(O)cc2)C(=O)N2CCC[C@H]2C(=O)N[C@@H](CCCNC(=N)N)C(=O)N[C@H](C(=O)N[C@@H](CC(=O)O)C(=O)N[C@H](C(=O)NCC(=O)N[C@@H](C)C(=O)NCC(=O)N[C@@H](CO)C(=O)N2CCC[C@H]2C(N)=O)C(C)C)[C@@H](C)O)NC(=O)[C@H](CC(C)C)NC(=O)[C@H](CCC(=O)O)NC(=O)[C@H](C)NC(=O)[C@H](CO)NC(=O)[C@H](CC(C)C)NC(=O)[C@H](CCCNC(=N)N)NC1=O)C(C)C)[C@@H](C)O [AMY-005, Ac-ASHLSTAVLCRLSAELCKL-Aib-DYPRTDVGAGSP-NH2] (Ac-ASHLSTAVLCRLSAELCKL[Aib]DYPRTDVGAGSP-NH2; linker 10-17 via X1)
EC50 [2]: 0.198 nM | EC50 [3]: 0.303 nM

CC(=O)N[C@@H](C)C(=O)N[C@@H](CO)C(=O)N[C@@H](Cc1c[nH]cn1)C(=O)N[C@@H](CC(C)C)C(=O)N[C@@H](CO)C(=O)N[C@H](C(=O)N[C@@H](C)C(=O)N[C@H](C(=O)N[C@@H](CC(C)C)C(=O)NCC(=O)N[C@@H](CCCNC(=N)N)C(=O)N[C@H]1CSCC(=O)NCCN(C(=O)CCC(=O)NCCOCCOCC(=O)NCCOCCOCC(=O)NCCCC[C@H](NC(=O)CCCCCCCCCCCCCCCCCCC(=O)O)C(=O)O)CCNC(=O)CSC[C@@H](C(=O)NC(C)(C)C(=O)N[C@@H](CC(=O)O)C(=O)N[C@@H](Cc2ccc(O)cc2)C(=O)N2CCC[C@H]2C(=O)N[C@@H](CCCNC(=N)N)C(=O)N[C@H](C(=O)N[C@@H](CC(=O)O)C(=O)N[C@H](C(=O)NCC(=O)N[C@@H](C)C(=O)NCC(=O)N[C@@H](CO)C(=O)N2CCC[C@H]2C(N)=O)C(C)C)[C@@H](C)O)NC(=O)[C@H](CCCCN)NC(=O)[C@H](Cc2c[nH]cn2)NC(=O)[C@H](CC(C)C)NC(=O)[C@H](CCC(=O)O)NC(=O)[C@H](C)NC(=O)[C@H](CO)NC1=O)C(C)C)[C@@H](C)O [AMY-007, Ac-ASHLSTAVLGRCSAELHKC-Aib-DYPRTDVGAGSP-NH2] (Ac-ASHLSTAVLGRCSAELHKC[Aib]DYPRTDVGAGSP-NH2; linker 12-19 via X1)
EC50 [2]: 0.349 nM | EC50 [3]: 0.262 nM
